# Results as given in patent US20250057814A1, “ENDODONTIC BIOFILM-ERADICATION TECHNIQUE UTILIZING A DUAL-SYSTEM INTRACANAL MEDICATION” (priority 2023, published 2025).
# Marks after values point to notes of the source that are not given here.
# How the values were obtained:
# S. aureus NCTC 8325-4 = settings: reference 215, cited from earlier work
# P. pseudomallei = settings: reference 208, cited from earlier work
# endodontic lesions = experiment: Intracanal medication of patients with large endodontic lesions, healing evaluated by CBCT and radiograph; type: in vivo; settings: 12 months post obturation
# E. coli ATCC 25922 = settings: reference 26, cited from earlier work
structure (smiles),measurement,setting,value
CN[C@H](CC(C)C)C(=O)N[C@H]1C(=O)N[C@@H](CC(N)=O)C(=O)N[C@H]2C(=O)N[C@H]3C(=O)N[C@H](C(=O)N[C@H](C(=O)O)c4cc(O)cc(O)c4-c4cc3ccc4O)[C@H](O)c3ccc(c(Cl)c3)Oc3cc2cc(c3O[C@@H]2O[C@H](CO)[C@@H](O)[C@H](O)[C@H]2O[C@H]2C[C@](C)(N)[C@H](O)[C@H](C)O2)Oc2ccc(cc2Cl)[C@H]1O [Vancomycin],Concentration effective against biofilm phenotype,"S. aureus NCTC 8325-4; biofilm, concentration required for 99% reduction",20^a μg/ml
same,MBC of planktonic phenotype,S. aureus NCTC 8325-4; planktonic S. aureus NCTC 8325-4,2 (MBC) μg/ml
CC(C)(O/N=C(\C(=O)N[C@@H]1C(=O)N2C(C(=O)[O-])=C(C[n+]3ccccc3)CS[C@H]12)c1csc(N)n1)C(=O)O [Ceftazidime],Concentration effective against biofilm phenotype,"P. pseudomallei; biofilm, concentration required for ~99% reduction",800^c μg/ml
same,MBC of planktonic phenotype,P. pseudomallei; planktonic P. pseudomallei,8 (MBC) μg/ml
[Ca+2].[OH-].[OH-] [calcium hydroxide],"change in size of lesion, Example Case No. 3",endodontic lesions; tooth 10,no change in the size of lesion
same,"lesion healing, Example Case No. 3 side-by-side comparison","endodontic lesions; four weeks of intra-canal medication, teeth 7 and 8 formula, tooth 10 calcium hydroxide",non-healing of the smaller lesion
CC1(C)S[C@@H]2[C@H](NC(=O)[C@H](N)c3ccccc3)C(=O)N2[C@H]1C(=O)O [Ampicillin],Concentration effective against biofilm phenotype,"E. coli ATCC 25922; biofilm, minimal biofilm eradication concentration",512^b μg/ml
same,MIC of planktonic phenotype,E. coli ATCC 25922; planktonic E. coli ATCC 25922,2 (MIC) μg/ml
